# What was measured:
# [1] = system: 22RV1 (AR positive) xenografts; assay: 22RV1 xenograft in SCID mice; assay type: in vivo; conditions: 60 mg/kg bw
# Description: (§1) FIG. 8. Pharmacological inhibition of HSP60-ClpP inhibit oncogenic signaling and PCa tumor growth in vivo. (A) LNCaP, PC-3 and 22RV1 cells were treated with DCEM1 and analyzed for c-Myc and EZH2 protein expression after 24 hours of treatment. (B) LNCaP, 22RV1 and VCaP cells were treated with DCEM1 and analyzed for AR and PSA protein expression after 24 hours of treatment. (C-D) 22RV1 cells (1×10^6 cells) were mixed with matrigel (50:50 v/v) and injected into each flank of SCID mice and treated with DCEM1 (60 mg/kg bw) through IP route twice weekly and tumors were harvested, photographed (C) and weighed (D) at 30 days. (E) DEVDase activity were analyzed in 22RV1 xenograft tumor tissue following DCEM1 treatment and represented as fold change compared to control. (F) 22RV1 xenograft tissue were sectioned and expression of ki67, c-Myc and EZH2 proteins were analyzed by Immunohistochemistry as described in material and methods. (G-H) PC-3 cells (1×10^6 cells) were mixed with matrigel (50:50 v/v) and injected into each flank of SCID mice and treated with DCEM1 (60 mg/kg bw) through IP route twice weekly and tumors were harvested, photographed (G) and weighed (H) at 35 days. (I) DEVDase activity were analyzed in PC-3 xenograft tumor tissue following DCEM1 treatment and represented as fold change compared to control. (J) PC-3 xenograft tumor tissue were fixed and sections were used for in situ PLA to analyze HSP60-ClpP interaction in these tissue samples. […] All animals were sacrificed at 16 weeks of age and prostate tissue and tumors were harvested, whole cell lysate were prepared and analyzed for HSP60 and ClpP expression (N); c-Myc and EZH2 expression (0) and SYP and CK 8/18 expression (P) by immunoblotting. […]
# (§2) Ablation of HSP60-ClpP interaction by DCEM1 downregulates c-Myc, EZH2 and AR as well as inhibits tumor growth in vivo. […] The effect of DCEM1 on 22RV1 (AR positive) and PC-3 (AR negative) xenografts growth in SCID mice was analyzed. […]
# [2] = system: PC-3 (AR negative) xenografts; assay: PC-3 xenograft in SCID mice; assay type: in vivo; conditions: 60 mg/kg bw
# Description: as §1, §2
compound,measurement,setting,value
CCOc1cc(CNCc2nc3ccccc3[nH]2)ccc1OCc1cccs1 [DCEM1],caspase-3 (DEVDase) activity in 22RV1 xenograft tumors,"[1]; IP, twice weekly",induced
same,"tumor volume and weight, 22RV1 xenografts","[1]; IP, twice weekly, 30 days",effectively inhibited
same,"expression of Ki67, c-Myc, EZH2 and AR in 22RV1 xenograft",[1]; immunohistochemistry,"downregulated expression of Ki67, c-Myc, EZH2 and AR"
same,HSP60-ClpP interaction by in situ PLA in PC-3 xenograft tumors,[2],inhibited HSP60-ClpP interaction
same,caspase-3 (DEVDase) activity in PC-3 xenograft tumors,"[2]; IP, twice weekly",induced
same,"tumor volume and weight, PC-3 xenografts","[2]; IP, twice weekly, 35 days",effectively inhibited

# Reference: US20240009174A1, “METHODS FOR DISRUPTING MITOCHONDRIAL UNFOLDED PROTEIN RESPONSE” (Health Research, Inc., priority 2020, published 2024)
